Experimental data: paper PMC5306082, “Physiologically based kinetic modeling of the bioactivation of myristicin” (Archives of Toxicology, 2016)

Legend:
Type in all cases: in vitro ADME
[1] = Microsomal conversion of myristicin, human liver microsomes
Protocol: First, it was determined which organs are involved in the biotransformation of myristicin in rat and human. For this purpose, liver, kidney, lung, and small intestine microsomes from male Sprague–Dawley rat and pooled gender human were used. Incubations were performed by adding myristicin to incubation mixtures containing 1 mg/mL of the microsomal protein preparations and 3 mM NADPH in 0.2 M Tris–HCl (pH 7.4). After 1 min of pre-incubation at 37 °C, myristicin (final concentration, 1000 μM) was added from a 100 times concentrated stock solution in DMSO so that the final DMSO content was 1 % (v/v). Incubations were carried out for 30 min after which the reactions were terminated by adding 25 µl (0.25 times the incubation volume) of ice-cold ACN. Samples were centrifuged for 5 min at 13,000×g, and the supernatant was stored at −20 °C until UPLC analysis. As metabolism of myristicin was observed only in incubations with liver microsomes for male rats and pooled gender human, the determination of kinetic constants for the formation of microsomal metabolites was performed only for the liver fractions. Incubations to determine kinetic constants were performed following the conditions described above using final concentrations of myristicin from 25 to 1000 μM for rat and human liver. In all incubations, the final concentration of DMSO, in which myristicin was dissolved, was kept at 1 % (v/v). The formation of different microsomal metabolites was linear with time and microsomal protein concentration under the conditions described. Blank incubations were performed in the absence of the cofactor NADPH. All incubations were performed in triplicate.
Secondary metabolism of the relevant 1′-hydroxy metabolite of myristicin was taken into account by determining the kinetic constants for its conversion in (a) glucuronidation, (b) sulfation, and (c) oxidation, again under conditions that allowed adequate definition of kinetic constants and with <10 % substrate conversion. Incubation samples were subjected to UPLC analysis that was performed as described previously (Punt et al. [2008]). Identification was achieved by comparing the UV spectra of the formed metabolites to the spectra of the synthesized 1′-hydroxymyristicin and 1′-oxomyristicin reference standards. Quantification of all formed metabolites was done by comparing the peak areas to those of calibration curves of the corresponding reference compounds, determined using UPLC with photodiode array detection (UPLC-PDA). The UPLC system was composed of a Waters (Waters, Milford, MA) Acquity solvent manager, sample manager, and photodiode array detector, equipped with Water Acquity UPLC BEH C18 column.
The gradient for analysis of microsomal metabolites was performed with 100 % ACN and ultrapure water containing 0.1 % (v/v) TFA. The flow rate was 0.6 ml/min. The gradient started at 10 % ACN, increased to 50 % ACN over 4 min, increased to 80 % over 0.5 min, followed by decrease to 10 % ACN over 0.5 min, and finally kept at 10 % for 1 min.

[2] = Oxidation of 1′-hydroxymyristicin to 1′-oxomyristicin, rat liver microsomes; settings: rat vs human
Protocol: (§1) The kinetic constants for the enzymatic conversion of 1′-hydroxymyristicin to 1′-oxomyristicin were determined using incubation mixtures containing (final concentrations) 3 mM NAD^+, 2 mM GSH, and 1 mg/ml rat or human liver microsomes in 0.2 M Tris–HCl (pH 7.4). GSH was added to the incubation mixtures to trap the reactive 1′-oxo metabolite formed after oxidation of 1′-hydroxymyristicin. The level of GSH in the incubations was optimized in a previous study to obtain maximum scavenging of 1′-oxoestragole (Punt et al. [2009]). To this end, incubations were performed in the presence of increasing concentrations of GSH, ranging from 2 to 10 mM. […] Kinetic constants for this reaction in rat and human liver were derived by performing incubations with NAD^+ as a cofactor, given that in rat and human liver, NAD^+ is mainly present in an oxidized form with levels of NAD^+ being much higher than those of NADH. In a previous study, it was shown that the highest level of 1′-hydroxy alkenylbenzene oxidation occurs in incubations with microsomes in the presence of NAD^+ as cofactor. […] The enzyme responsible for the oxidation may be 17β-hydroxysteroid dehydrogenase type 2 (17β-HSD2) (Punt et al. [2010]). Prior to the addition of 1′-hydroxymyristicin at final concentrations ranging between 10 and 4000 μM to the incubation mixture from 100 times concentrated stock solutions in DMSO, samples were pre-incubated for 1 min at 37 °C. Reactions were terminated after 10 min of incubation at 37 °C by adding 25 μl (0.25 times the incubation volume) of ice-cold ACN. The formation of the GSH conjugate of 1′-oxomyristicin (GS-1′-oxomyristicin) was linear with time and microsomal protein concentration under the experimental conditions used. Blank incubations were performed without the cofactor NAD^+. Incubations were performed in triplicate. All samples were centrifuged for 5 min at 13,000×g, and the supernatant was stored at −20 °C until UPLC analysis.
(§2) Quantification of GS-1′-oxomyristicin was based on a calibration curve of the GSH adduct of the synthesized 1′-oxymyristicin made as previously described (van den Berg et al. [2012]; Punt et al. [2009]; Martati et al. [2011]; Al-Subeihi et al. [2011]). In short, a 60 μM concentration of the synthetic standard of 1′-oxomyristicin, dissolved in ACN, was incubated with different concentrations of GSH (i.e., 0–20 μM) in 0.2 M Tris–HCl (pH 7.4) for 6 h at 37 °C, resulting in full conversion of the GSH to GS-1′-oxymyristicin. Quantification was done by comparing the peak areas of the formed GS-1′-oxo metabolite in the incubation mixtures with peak areas of the GS-1′-oxymyristicin calibration curve thus obtained at a wavelength of 212 nm. The gradient for analysis of the metabolite consisted of a mixture of ACN and ultrapure water containing 0.1 % (v/v) TFA. The flow rate was 0.6 ml/min, The gradient started with 10 % ACN, increased to 30 % ACN over 2.5 min, after which ACN was increased to 80 % over 0.5 min, kept at 80 % for 0.5 min, followed by a decrease to 10 % over 0.5 min, and finally kept at 10 % for 0.5 min.

[3] = Oxidation of 1′-hydroxymyristicin to 1′-oxomyristicin, human liver microsomes; settings: human vs rat
Protocol: as §1, §2

C=CC(O)c1cc(OC)c2c(c1)OCO2 (stereo not drawn) [1′-Hydroxymyristicin, 1′-hydroxymyristicin]
Vmax ([1]; formation of the metabolite from myristicin, NADPH, mean of three ± SD): 0.17 ± 0.03 nmol min^−1 (mg microsomal or S9 protein)^−1 | In vitro catalytic efficiency ([1]; formation of the metabolite from myristicin, Vmax/Km × 1000): 0.726 μl min^−1 (mg microsomal or S9 protein)^−1 | Scaled Vmax, in vivo ([1]; from myristicin, microsomal protein yield 32 mg/g liver): 0.326 μmol/h/g tissue | In vivo catalytic efficiency ([1]; from myristicin, scaled Vmax/Km): 0.0014 ml/h/g tissue | oxidation, fold lower affinity in rat than in human [2]: 1.8 fold | oxidation, times more efficient in human liver than in male rat liver [3]: 1.2 times
